From patent US9428464B2, “Kynurenine-3-monooxygenase inhibitors, pharmaceutical compositions, and methods of use thereof” (CHDI Foundation, Inc., priority 2011, dated 2016)

System: KMO
Assay: KMO activity assay: L-Kynurenine hydroxylation to 3-Hydroxy-Kynurenine, quantified by LC/MS
Type: biochemical
Conditions: compound at 10 uM; footnote: some portion of activity of amides may be due to contribution of acid precursor
Description: A generalized procedure for monitoring L-Kynurenine (KYN) hydroxylation to form product 3-Hydroxy-Kynurenine (3OH-KYN) by LC/MS is described below. Product is quantified by multiple reaction monitoring using MS.
A method of monitoring L-Kynurenine (KYN) hydroxylation to form product 3-Hydroxy-Kynurenine (3OH-KYN) by LC/MS is described below. Product is quantified by multiple reaction monitoring.
• Compound: Stock concentrations: 10 mM in 100% DMSO • Enzyme: KMO enzyme prepared at Evotec via mitochondria isolation from CHO-GST HIS KMO cells • Substrate: L-Kynurenine (Sigma: Cat #K3750) • [stock concentration: 10 mM in 100 mM potassium phosphate buffer, pH 7.4]
A method of monitoring L-Kynurenine (KYN) hydroxylation to form 3-Hydroxy-Kynurenine (3OH-KYN) by LC/MS is described. Product is quantified by multiple reaction monitoring (MRM method).

| SMILES | % Inhibition at 10 uM |
| --- | --- |
| C[C@H](NC(=O)c1cc(-c2ccc(Cl)c(Cl)c2)ncn1)c1ccccc1 [6-(3,4-Dichloro-phenyl)-pyrimidine-4-carboxylic acid ((S)-1-phenyl-ethyl)-amide] | 102.29% |
| C[C@H](NC(=O)c1cc(-c2ccc(Cl)c(Cl)c2)ncn1)c1cccnc1 [6-(3,4-Dichloro-phenyl)-pyrimidine-4-carboxylic acid ((S)-1-pyridin-3-yl-ethyl)-amide] | 85.1% |
| C[C@H](NC(=O)c1cc(-c2ccc(Cl)c(Cl)c2)ncn1)c1ccncc1 [6-(3,4-Dichloro-phenyl)-pyrimidine-4-carboxylic acid ((S)-1-pyridin-4-yl-ethyl)-amide] | 91.79% |
| C[C@@H](CO)NC(=O)c1cc(-c2ccc(Cl)c(Cl)c2)ncn1 [6-(3,4-Dichloro-phenyl)-pyrimidine-4-carboxylic acid ((S)-2-hydroxy-1-methyl-ethyl)-amide] | 99.59% |
| C[C@H](O)CNC(=O)c1cc(-c2ccc(Cl)c(Cl)c2)ncn1 [6-(3,4-Dichloro-phenyl)-pyrimidine-4-carboxylic acid ((S)-2-hydroxy-propyl)-amide] | 86.83% |
| Cl.O=C(N[C@@H]1CCNC1)c1cc(-c2ccc(Cl)c(Cl)c2)ncn1 [6-(3,4-Dichloro-phenyl)-pyrimidine-4-carboxylic acid (R)-pyrrolidin-3-ylamide hydrochloride salt] | 95.94% |
| Cl.O=C(N[C@H]1CCNC1)c1cc(-c2ccc(Cl)c(Cl)c2)ncn1 [6-(3,4-Dichloro-phenyl)-pyrimidine-4-carboxylic acid (S)-pyrrolidin-3-ylamide hydrochloride salt] | 89.355% |
| O=C(N[C@@H]1CCOC1)c1cc(-c2ccc(Cl)c(Cl)c2)ncn1 [6-(3,4-Dichloro-phenyl)-pyrimidine-4-carboxylic acid (tetrahydro-furan-3R-yl)-amide] | 41.5% |
| O=C(N[C@H]1CCOC1)c1cc(-c2ccc(Cl)c(Cl)c2)ncn1 [6-(3,4-Dichloro-phenyl)-pyrimidine-4-carboxylic acid (tetrahydro-furan-3S-yl)-amide] | 53.41% |
| O=C(NC1CCOCC1)c1cc(-c2ccc(Cl)c(Cl)c2)ncn1 [6-(3,4-Dichloro-phenyl)-pyrimidine-4-carboxylic acid (tetrahydro-pyran-4-yl)-amide] | 55.35% |
| O=C(NCC1CCOCC1)c1cc(-c2ccc(Cl)c(Cl)c2)ncn1 [6-(3,4-Dichloro-phenyl)-pyrimidine-4-carboxylic acid (tetrahydro-pyran-4-ylmethyl)-amide] | 101.39% |
| O=C(Nc1nnco1)c1cc(-c2ccc(Cl)c(Cl)c2)ncn1 [6-(3,4-Dichloro-phenyl)-pyrimidine-4-carboxylic acid [1,3,4]oxadiazol-2-ylamide] | 101.93% |
| CC(NC(=O)c1cc(-c2ccc(Cl)c(Cl)c2)ncn1)c1ccc2c(c1)NC(=O)CO2 (centres unmarked) [6-(3,4-Dichloro-phenyl)-pyrimidine-4-carboxylic acid [1-(3-oxo-3,4-dihydro-2H-benzo[1,4]oxazin-6-yl)-ethyl]-amide] | 99.66% |
| O=C1CN(C(=O)CNC(=O)c2cc(-c3ccc(Cl)c(Cl)c3)ncn2)CCN1 [6-(3,4-Dichloro-phenyl)-pyrimidine-4-carboxylic acid [2-oxo-2-(3-oxo-piperazin-1-yl)-ethyl]-amide] | 62.23% |
| CC1CN(c2cccc(NC(=O)c3cc(-c4ccc(Cl)c(Cl)c4)ncn3)c2)CC(C)O1 (centres unmarked) [6-(3,4-Dichloro-phenyl)-pyrimidine-4-carboxylic acid [3-(2,6-dimethyl-morpholin-4-yl)-phenyl]-amide] | 57.56% |
| CN1CCN(c2cccc(NC(=O)c3cc(-c4ccc(Cl)c(Cl)c4)ncn3)c2)CC1.Cl [6-(3,4-Dichloro-phenyl)-pyrimidine-4-carboxylic acid [3-(4-methyl-piperazin-1-yl)-phenyl]-amide hydrochloride salt] | 85.89% |
| CN1CCN(c2cccc(NC(=O)c3cc(-c4ccc(Cl)c(Cl)c4)ncn3)c2)CC1 [6-(3,4-Dichloro-phenyl)-pyrimidine-4-carboxylic acid [3-(4-methyl-piperazin-1-yl)-phenyl]-amide] | 75.48% |
| CC1CN(c2ccc(NC(=O)c3cc(-c4ccc(Cl)c(Cl)c4)ncn3)cc2)CC(C)O1.Cl (centres unmarked) [6-(3,4-Dichloro-phenyl)-pyrimidine-4-carboxylic acid [4-(2,6-dimethyl-morpholin-4-yl)-phenyl]-amide hydrochloride salt] | 97.61% |
| Cl.O=C(Nc1ccc(OCCN2CCOCC2)cc1)c1cc(-c2ccc(Cl)c(Cl)c2)ncn1 [6-(3,4-Dichloro-phenyl)-pyrimidine-4-carboxylic acid [4-(2-morpholin-4-yl-ethoxy)-phenyl]-amide hydrochloride salt] | 90.48% |

| SMILES | % Inhibition at 10 uM |
| --- | --- |
| O=C(Nc1ccc(OCCN2CCOCC2)cc1)c1cc(-c2ccc(Cl)c(Cl)c2)ncn1 [6-(3,4-Dichloro-phenyl)-pyrimidine-4-carboxylic acid [4-(2-morpholin-4-yl-ethoxy)-phenyl]-amide] | 100.44% |
| CN1CCN(c2ccc(NC(=O)c3cc(-c4ccc(Cl)c(Cl)c4)ncn3)cc2)CC1.Cl [6-(3,4-Dichloro-phenyl)-pyrimidine-4-carboxylic acid [4-(4-methyl-piperazin-1-yl)-phenyl]-amide hydrochloride salt] | 89.6% |
| CC(C)(O)c1nnc(NC(=O)c2cc(-c3ccc(Cl)c(Cl)c3)ncn2)o1 [6-(3,4-Dichloro-phenyl)-pyrimidine-4-carboxylic acid [5-(1-hydroxy-1-methyl-ethyl)-[1,3,4]oxadiazol-2-yl]-amide] | 102.115% |
| Cl.O=C(Nc1ccc(OCCN2CCOCC2)nc1)c1cc(-c2ccc(Cl)c(Cl)c2)ncn1 [6-(3,4-Dichloro-phenyl)-pyrimidine-4-carboxylic acid [6-(2-morpholin-4-yl-ethoxy)-pyridin-3-yl]-amide hydrochloride salt] | 86.37% |
| CNC(=O)c1cc(-c2ccc(Cl)c(Cl)c2)ncn1 [6-(3,4-Dichloro-phenyl)-pyrimidine-4-carboxylic acid methylamide] | 100.31% |
| O=C(Nc1ncco1)c1cc(-c2ccc(Cl)c(Cl)c2)ncn1 [6-(3,4-Dichloro-phenyl)-pyrimidine-4-carboxylic acid oxazol-2-yl-amide] | 101.04% |
| O=C(Nc1cnccn1)c1cc(-c2ccc(Cl)c(Cl)c2)ncn1 [6-(3,4-Dichloro-phenyl)-pyrimidine-4-carboxylic acid pyrazin-2-yl-amide] | 100.28% |
| O=C(Nc1cccnn1)c1cc(-c2ccc(Cl)c(Cl)c2)ncn1 [6-(3,4-Dichloro-phenyl)-pyrimidine-4-carboxylic acid pyridazin-3-yl-amide] | 100.38% |
| Cc1nc(C(=O)O)cc(-c2ccc(F)c(F)c2)n1 [6-(3,4-Difluoro-phenyl)-2-methyl-pyrimidine-4-carboxylic acid] | 100% |
| C[C@H](NC(=O)c1cc(-c2ccc(F)c(F)c2)ncn1)c1ccccc1 [6-(3,4-Difluoro-phenyl)-pyrimidine-4-carboxylic acid ((S)-1-phenyl-ethyl)-amide] | 100.39% |
| CON(C)C(=O)c1cc(-c2ccc(Cl)c(Cl)c2)ncn1 [6-(3,4-dichloro-phenyl)-pyrimidine-4-carboxylic acid methoxy-methyl-amide] | 103.74% |
| O=C(O)c1ncnc(-c2ccc(Cl)c(Cl)c2)c1CO [6-(3,4-dichlorophenyl)-5-(hydroxymethyl)pyrimidine-4-carboxylate] | 95% |
| O=C(NO)c1cc(-c2ccc(Cl)c(Cl)c2)ncn1 [6-(3,4-dichlorophenyl)-N-hydroxypyrimidine-4-carboxamide] | 73% |
| Cc1nnc(NC(=O)c2cc(-c3cccc(Br)c3)ncn2)o1 [6-(3-Bromo-phenyl)-pyrimidine-4-carboxylic acid (5-methyl-[1,3,4]oxadiazol-2-yl)-amide] | 102.59% |
| O=C(O)c1cc(-c2cccc(Br)c2)ncn1 [6-(3-Bromo-phenyl)-pyrimidine-4-carboxylic acid] | 102.1% |
| O=C(Nc1cccnc1)c1cc(-c2cccc(Cl)c2F)ncn1 [6-(3-Chloro-2-fluoro-phenyl)-pyrimidine-4-carboxylic acid pyridin-3-yl-amide] | 100.83% |
| C[C@H](NC(=O)c1cc(-c2ccc(F)c(Cl)c2)ncn1)c1ccccc1 [6-(3-Chloro-4-fluoro-phenyl)-pyrimidine-4-carboxylic acid ((S)-1-phenyl-ethyl)-amide] | 89.07% |
| Cc1noc(C)c1NC(=O)c1cc(-c2cccc(Cl)c2)ncn1 [6-(3-Chloro-phenyl)-pyrimidine-4-carboxylic acid (3,5-dimethyl-isoxazol-4-yl)-amide] | 89.92% |
| C[C@H](NC(=O)c1cc(-c2cccc(Cl)c2)ncn1)c1ccncc1 [6-(3-Chloro-phenyl)-pyrimidine-4-carboxylic acid ((S)-1-pyridin-4-yl-ethyl)-amide] | 96.86% |
